Data reported in US8106055B2, “Substituted amide compounds” (Gruenenthal GmbH, priority 2007, dated 2012).

The molecules below were run against T1, human μ opiate receptor (Homo sapiens, UniProt P35372) (assay: Affinity for the human μ opiate receptor ([3H]-naloxone displacement, CHO-K1 receptor membrane preparation, SPA)). Details: test concentration of 1 μM; read-out: μ (binding on the μ opioid receptor, % inhibition).
T1 construct: purchased PerkinElmer Life Sciences, Zaventem, Belgium RB-HOM; host or cells: CHO-K1 cells (membrane preparation)
T1 sequence (P35372 whole entry): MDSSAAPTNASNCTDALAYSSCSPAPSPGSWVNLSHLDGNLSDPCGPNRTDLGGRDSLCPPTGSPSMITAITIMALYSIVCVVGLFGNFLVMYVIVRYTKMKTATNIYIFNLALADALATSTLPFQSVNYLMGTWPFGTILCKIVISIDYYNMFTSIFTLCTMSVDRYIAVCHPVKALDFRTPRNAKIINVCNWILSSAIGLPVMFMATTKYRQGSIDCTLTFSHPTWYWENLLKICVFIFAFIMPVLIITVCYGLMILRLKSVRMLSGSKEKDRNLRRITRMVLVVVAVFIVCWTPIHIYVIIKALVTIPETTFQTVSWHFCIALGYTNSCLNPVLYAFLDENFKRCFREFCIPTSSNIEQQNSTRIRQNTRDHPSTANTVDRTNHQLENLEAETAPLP
Type: binding
How it was run: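 Membranes from CHO-K1 cells expressing the human μ opiate receptor (15-40 μg protein per well) were incubated with test compound, 1 nmol/l [3H]-naloxone and WGA-SPA beads in 50 mmol/l Tris-HCl with 0.06% BSA for 90 minutes at room temperature. Values are % inhibition of specific binding at 1 μmol/l.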

Structure (SMILES) | inhibition at 1 µM
CN(C)C(c1cccc(F)c1)C1CCC(NC(=O)COCCN(Cc2ccccc2)S(=O)(=O)c2ccccc2)CC1 (centres unmarked) [Example 175, 2-(2-(N-benzylphenylsulfonamido)ethoxy)-N-(4-((dimethylamino)(3-fluorophenyl)methyl)cyclohexyl)acetamide] | 85%
COc1cc(C)c(S(=O)(=O)N(C)CCOCC(=O)NCCC2CCC(C(c3cccc(F)c3)N(C)C)CC2)c(C)c1 (centres unmarked) [Example 197, N-(2-(4-((dimethylamino)(3-fluorophenyl)methyl)cyclohexyl)ethyl)-2-(2-(4-methoxy-N,2,6-trimethylphenylsulfonamido)ethoxy)acetamide] | 85%
CN(C)C(c1cccs1)C1CCC(NC(=O)COCCN(Cc2ccccc2)S(=O)(=O)c2ccccc2)CC1 (centres unmarked) [Example 161, 2-(2-(N-benzylphenylsulfonamido)ethoxy)-N-(4-((dimethylamino)(thiophen-2-yl)methyl)cyclohexyl)acetamide] | 86%
CN(C)C(c1cccs1)C1CCC(NC(=O)COC2CCN(S(=O)(=O)c3ccccc3)C2)CC1 (centres unmarked) [Example 194, N-(4-((dimethylamino)(thiophen-2-yl)methyl)cyclohexyl)-2-(1-(phenylsulfonyl)pyrrolidin-3-yloxy)acetamide] | 83%
COc1ccc(S(=O)(=O)N2CCCC2COCC(=O)NC2CCC(C(c3cccs3)N(C)C)CC2)cc1 (centres unmarked) [Example 162, N-(4-((dimethylamino)(thiophen-2-yl)methyl)cyclohexyl)-2-((1-(4-methoxyphenylsulfonyl)pyrrolidin-2-yl)methoxy)acetamide] | 86%
CN(C)C(c1cccc(F)c1)C1CCC(CCNC(=O)COCCN(C)S(=O)(=O)c2cccc(C(F)(F)F)c2)CC1 (centres unmarked) [Example 192, N-(2-(4-((dimethylamino)(3-fluorophenyl)methyl)cyclohexyl)ethyl)-2-(2-(N-methyl-3-(trifluoromethyl)phenylsulfonamido)ethoxy)acetamide] | 88%
COc1cc(C)c(S(=O)(=O)N(CCOCC(=O)NCCC2CCC(C(c3cccs3)N(C)C)CC2)Cc2ccccc2)c(C)c1 (centres unmarked) [Example 149, 2-(2-(N-benzyl-4-methoxy-2,6-dimethylphenylsulfonamido)ethoxy)-N-(2-(4-((dimethylamino) (thiophen-2-yl)methyl)cyclohexyl)ethyl)acetamide] | 91%
Cc1cc(C)c(S(=O)(=O)N2CCC(OCC(=O)NCC3CCC(C(c4ccccc4)N(C)C)CC3)C2)c(C)c1 (centres unmarked) [Example 26, N-((4-((dimethylamino)(phenyl)methyl)cyclohexyl)methyl)-2-(1-(mesitylsulfonyl)pyrrolidin-3-yloxy)acetamide] | 97%
COc1ccc(S(=O)(=O)N2CCCC2COCC(=O)NC2CCC(C(c3ccccc3)N(C)C)CC2)cc1 (centres unmarked) [Example 182, N-(4-((dimethylamino)(phenyl)methyl)cyclohexyl)-2-((1-(4-methoxyphenylsulfonyl)pyrrolidin-2-yl)methoxy)acetamide] | 82%
COc1ccc(S(=O)(=O)N2CCCCC2COCC(=O)NCC2CCC(C(c3cccc(F)c3)N(C)C)CC2)cc1 (centres unmarked) [Example 179, N-((4-((dimethylamino)(3-fluorophenyl)methyl)cyclohexyl)methyl)-2-((1-(4-methoxyphenylsulfonyl)piperidin-2-yl)methoxy)acetamide] | 85%
CN(C)C(c1cccc(F)c1)C1CCC(CNC(=O)COC2CCCCC2N(C)S(=O)(=O)c2ccc(Cl)c(Cl)c2)CC1 (centres unmarked) [Example 164, 2-(2-(3,4-dichloro-N-methylphenylsulfonamido)cyclohexyloxy)-N-((4-((dimethylamino)(3-fluorophenyl)methyl)cyclohexyl)methyl)acetamide] | 86%
Cc1cc(C)c(S(=O)(=O)N2CCC(OCC(=O)NC3CCC(C(c4cccs4)N(C)C)CC3)C2)c(C)c1 (centres unmarked) [Example 12, N-(4-((dimethylamino)(thiophen-2-yl)methyl)cyclohexyl)-2-(1-(mesitylsulfonyl)pyrrolidin-3-yloxy)acetamide] | 98%
CN(C)C(c1cccc(F)c1)C1CCC(CNC(=O)COCCN(C)S(=O)(=O)c2c(Cl)cc(Cl)cc2Cl)CC1 (centres unmarked) [Example 188, N-((4-((dimethylamino)(3-fluorophenyl)methyl)cyclohexyl)methyl)-2-(2-(2,4,6-trichloro-N-methylphenylsulfonamido)ethoxy)acetamide] | 87%
COc1cc(C)c(S(=O)(=O)N(CCOCC(=O)NCC2CCC(C(c3ccccc3)N(C)C)CC2)Cc2ccccc2)c(C)c1 (centres unmarked) [Example 148, 2-(2-(N-benzyl-4-methoxy-2,6-dimethylphenylsulfonamido)ethoxy)-N-((4-((dimethylamino)(phenyl)methyl)cyclohexyl)methyl)acetamide] | 90%
CN(C)C(c1ccccc1)C1CCC(CNC(=O)COCC2CCCCN2S(=O)(=O)c2ccc(Cl)c(Cl)c2)CC1 (centres unmarked) [Example 17, 2-((1-(3,4-dichlorophenylsulfonyl)piperidin-2-yl)methoxy)-N-((4-((dimethylamino)(phenyl)methyl)cyclohexyl)methyl)acetamide] | 98%
Cc1ccc(S(=O)(=O)N2CCC(OCC(=O)NC3CCC(C(c4cccs4)N(C)C)CC3)C2)cc1 (centres unmarked) [Example 156, N-(4-((dimethylamino)(thiophen-2-yl)methyl)cyclohexyl)-2-(1-tosylpyrrolidin-3-yloxy)acetamide] | 80%
CN(C)C(c1cccs1)C1CCC(NC(=O)COCCN(C)S(=O)(=O)c2ccc(F)cc2)CC1 (centres unmarked) [Example 10, N-(4-((dimethylamino)(thiophen-2-yl)methyl)cyclohexyl)-2-(2-(4-fluoro-N-methylphenylsulfonamido)ethoxy)acetamide] | 98%
COc1ccc(S(=O)(=O)N2CCC(OCC(=O)NCC3CCC(C(c4cccc(F)c4)N(C)C)CC3)C2)cc1OC (centres unmarked) [Example 184, 2-(1-(3,4-dimethoxyphenylsulfonyl)pyrrolidin-3-yloxy)-N-((4-((dimethylamino)(3-fluorophenyl)methyl)cyclohexyl)methyl)acetamide] | 91%
CN(C)C(c1cccc(F)c1)C1CCC(NC(=O)COC2CCN(S(=O)(=O)c3cccc(C(F)(F)F)c3)C2)CC1 (centres unmarked) [Example 139, N-(4-((dimethylamino)(3-fluorophenyl)methyl)cyclohexyl)-2-(1-(3-(trifluoromethyl)phenylsulfonyl)pyrrolidin-3-yloxy)acetamide] | 83%
CN(C)C(c1cccc(F)c1)C1CCC(CCNC(=O)COCCN(C)S(=O)(=O)c2ccc(Cl)cc2)CC1 (centres unmarked) [Example 186, 2-(2-(4-chloro-N-methylphenylsulfonamido)ethoxy)-N-(2-(4-((dimethylamino)(3-fluorophenyl)methyl)cyclohexyl)ethyl)acetamide] | 87%
COc1cc(C)c(S(=O)(=O)N2CCC(OCC(=O)NCC3CCC(C(c4ccccc4)N(C)C)CC3)CC2)c(C)c1C (centres unmarked) [Example 143, N-((4-((dimethylamino)(phenyl)methyl)cyclohexyl)methyl)-2-(1-(4-methoxy-2,3,6-trimethylphenylsulfonyl)piperidin-4-yloxy)acetamide] | 89%
Cc1ccc(S(=O)(=O)N2CCC(OCC(=O)NCC3CCC(C(c4cccc(F)c4)N(C)C)CC3)C2)cc1 (centres unmarked) [Example 185, N-((4-((dimethylamino)(3-fluorophenyl)methyl)cyclohexyl)methyl)-2-(1-tosylpyrrolidin-3-yloxy)acetamide] | 78%
COc1cc(C)c(S(=O)(=O)N2CCCC(OCC(=O)NCC3CCC(C(c4ccccc4)N(C)C)CC3)C2)c(C)c1C (centres unmarked) [Example 29, N-((4-((dimethylamino)(phenyl)methyl)cyclohexyl)methyl)-2-(1-(4-methoxy-2,3,6-trimethylphenylsulfonyl)piperidin-3-yloxy)acetamide] | 97%
CN(C)C(c1ccccc1)C1CCC(CNC(=O)COCCN(C)S(=O)(=O)c2c(Cl)cccc2Cl)CC1 (centres unmarked) [Example 13, 2-(2-(2,6-dichloro-N-methylphenylsulfonamido)ethoxy)-N-((4-((dimethylamino)(phenyl)methyl)cyclohexyl)methyl)acetamide] | 98%
CN(C)C(c1cccs1)C1CCC(CCNC(=O)COCCN(C)S(=O)(=O)c2ccc(Cl)cc2Cl)CC1 (centres unmarked) [Example 9, 2-(2-(2,4-dichloro-N-methylphenylsulfonamido)ethoxy)-N-(2-(4-((dimethylamino) (thiophen-2-yl)methyl)cyclohexyl)ethyl)acetamide] | 98%
Cc1ccc(S(=O)(=O)N(C)CCOCC(=O)NCC2CCC(C(c3ccccc3)N(C)C)CC2)cc1 (centres unmarked) [Example 157, N-((4-((dimethylamino) (phenyl)methyl)cyclohexyl)methyl)-2-(2-(N,4-dimethylphenylsulfonamido)ethoxy)acetamide] | 87%
CN(C)C(c1cccs1)C1CCC(CCNC(=O)COC2CCN(S(=O)(=O)c3ccc(Cl)cc3Cl)C2)CC1 (centres unmarked) [Example 21, 2-(1-(2,4-dichlorophenylsulfonyl)pyrrolidin-3-yloxy)-N-(2-(4-((dimethylamino)(thiophen-2-yl)methyl)cyclohexyl)ethyl)acetamide] | 97%
CN(C)C(c1cccc(F)c1)C1CCC(CNC(=O)COC2CCN(S(=O)(=O)c3cccc(C(F)(F)F)c3)C2)CC1 (centres unmarked) [Example 170, N-((4-((dimethylamino)(3-fluorophenyl)methyl)cyclohexyl)methyl)-2-(1-(3-(trifluoromethyl)phenylsulfonyl)pyrrolidin-3-yloxy)acetamide] | 83%
Cc1cc(C)c(S(=O)(=O)N2CCC(OCC(=O)NCC3CCC(C(c4cccs4)N(C)C)CC3)C2)c(C)c1 (centres unmarked) [Example 27, N-((4-((dimethylamino)(thiophen-2-yl)methyl)cyclohexyl)methyl)-2-(1-(mesitylsulfonyl)pyrrolidin-3-yloxy)acetamide] | 97%
